Source: PubChem BioAssay AID248 (DTP/NCI, 2004)
Where “and” joins values, the source holds several entries; their conditions need not be identical. Equal values may be shown once. Inconclusive results and toxic doses are left out. Cut-off read from the data, not from the text of the source: active = T/C of 150% or more; inactive = T/C below 125%.

System: L1210 leukemia ip in BDF1 mice, survival T/C
Assay: NCI In Vivo Anticancer Drug Screen. Data for tumor model L1210 Leukemia (intraperitoneal) in B6D2F1 (BDF1) mice
Conditions: endpoint: mean survival time, higher = longer survival
Method in brief: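 In this screen, tumor-bearing mice given compound are compared to those given vehicle, and their survival values are reported as a treated-to-control quotient.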

[1] = dose: 100.0 mg/kg/injection, schedule: Q04DX003 (ip), vehicle: Klucel (hydroxypropylcellulose) (HPC)
[2] = dose: 200.0 mg/kg/injection, schedule: Q04DX003 (ip), vehicle: Klucel (hydroxypropylcellulose) (HPC)
[3] = dose: 400.0 mg/kg/injection, schedule: Q04DX003 (ip), vehicle: Klucel (hydroxypropylcellulose) (HPC)
[4] = dose: 100.0 mg/kg/injection, schedule: Q01DX001 (ip), vehicle: saline with Tween-80
[5] = dose: 100.0 mg/kg/injection, schedule: Q01DX009 (ip), vehicle: Klucel (hydroxypropylcellulose) (HPC)
[6] = dose: 200.0 mg/kg/injection, schedule: Q01DX001 (ip), vehicle: saline with Tween-80
[7] = dose: 200.0 mg/kg/injection, schedule: Q01DX009 (ip), vehicle: Klucel (hydroxypropylcellulose) (HPC)
[8] = dose: 400.0 mg/kg/injection, schedule: Q01DX001 (ip), vehicle: saline with Tween-80
[9] = dose: 50.0 mg/kg/injection, schedule: Q01DX009 (ip), vehicle: saline with Tween-80
[10] = dose: 100.0 mg/kg/injection, schedule: Q04DX003 (ip), vehicle: saline

Measured: T/C

CN(C)CC(=O)c1ccc(O)c(O)c1
inactive: dose: 29.5 mg/kg/injection, schedule: Q#A X Z (ip), vehicle: saline 123 % of control | dose: 44.5 mg/kg/injection, schedule: Q#A X Z (ip), vehicle: saline 124 % of control | dose: 50.0 mg/kg/injection, schedule: Q01DX Z (ip), vehicle: saline 109 % of control | dose: 75.0 mg/kg/injection, schedule: Q01DX010 (ip), vehicle: saline 112 % of control and 114 % of control | dose: 75.0 mg/kg/injection, schedule: Q01DX Z (ip), vehicle: carboxymethylcellulose (CMC) 110 % of control | dose: 75.0 mg/kg/injection, schedule: Q01DX Z (ip), vehicle: clinical formulation 110 % of control and 113 % of control | dose: 75.0 mg/kg/injection, schedule: Q01DX Z (ip), vehicle: water 112 % of control | dose: 100.0 mg/kg/injection, schedule: Q01DX Z (ip), vehicle: saline 116 % of control | dose: 133.0 mg/kg/injection, schedule: Q01DX Z (ip), vehicle: saline 124 % of control | dose: 150.0 mg/kg/injection, schedule: Q01DX Z (ip), vehicle: carboxymethylcellulose (CMC) 112 % of control | dose: 150.0 mg/kg/injection, schedule: Q01DX Z (ip), vehicle: clinical formulation 116 % of control | dose: 150.0 mg/kg/injection, schedule: Q01DX Z (ip), vehicle: water 124 % of control | dose: 150.0 mg/kg/injection, schedule: Q#A X Z (ip), vehicle: saline 118 % of control | dose: 200.0 mg/kg/injection, schedule: Q01DX007 (iv), vehicle: saline 104 % of control | dose: 200.0 mg/kg/injection, schedule: Q01DX Z (sc), vehicle: saline 108 % of control | dose: 200.0 mg/kg/injection, schedule: Q## X Z (ip), vehicle: saline 100 % of control | dose: 266.0 mg/kg/injection, schedule: Q03DX Z (ip), vehicle: saline 123 % of control | dose: 300.0 mg/kg/injection, schedule: Q01DX007 (iv), vehicle: saline 95 % of control | dose: 300.0 mg/kg/injection, schedule: Q01DX Z (ip), vehicle: clinical formulation 118 % of control | dose: 300.0 mg/kg/injection, schedule: Q01DX Z (ip), vehicle: water 116 % of control | dose: 300.0 mg/kg/injection, schedule: Q01DX Z (sc), vehicle: saline 108 % of control | dose: 300.0 mg/kg/injection, schedule: Q## X Z (ip), vehicle: saline 100 % of control | dose: 400.0 mg/kg/injection, schedule: Q03DX Z (ip), vehicle: saline 117 % of control | dose: 450.0 mg/kg/injection, schedule: Q01DX Z (sc), vehicle: saline 103 % of control | dose: 450.0 mg/kg/injection, schedule: Q## X Z (ip), vehicle: saline 100 % of control | dose: 532.0 mg/kg/injection, schedule: Q01DX Z (oral), vehicle: saline 94 % of control | dose: 600.0 mg/kg/injection, schedule: Q03DX Z (ip), vehicle: saline 102 % of control and 112 % of control (2×) | dose: 622.0 mg/kg/injection, schedule: Q07DX Z (ip), vehicle: saline 115 % of control | dose: 675.0 mg/kg/injection, schedule: Q01DX Z (sc), vehicle: saline 116 % of control | dose: 675.0 mg/kg/injection, schedule: Q## X Z (ip), vehicle: saline 102 % of control | dose: 800.0 mg/kg/injection, schedule: Q01DX Z (ip), vehicle: carboxymethylcellulose (CMC) 102 % of control | dose: 800.0 mg/kg/injection, schedule: Q01DX Z (oral), vehicle: saline 101 % of control and 88 % of control | dose: 933.0 mg/kg/injection, schedule: Q07DX Z (ip), vehicle: saline 104 % of control | dose: 1200.0 mg/kg/injection, schedule: Q01DX Z (oral), vehicle: saline 102 % of control and 106 % of control | dose: 1400.0 mg/kg/injection, schedule: Q07DX Z (ip), vehicle: saline 113 % of control | dose: 1800.0 mg/kg/injection, schedule: Q01DX Z (oral), vehicle: saline 100 % of control
active: dose: 450.0 mg/kg/injection, schedule: Q01DX Z (ip), vehicle: saline 153 % of control

CCCC/C(=N\OP(=O)(OCC)OCC)c1ccccc1
inactive: dose: 75.0 mg/kg/injection, schedule: Q01DX001 (ip), vehicle: saline 101 % of control | dose: 150.0 mg/kg/injection, schedule: Q01DX001 (ip), vehicle: saline 107 % of control | dose: 300.0 mg/kg/injection, schedule: Q01DX001 (ip), vehicle: saline 91 % of control

CC(C)(C)NNC(=O)c1ccccc1
inactive: dose: 75.0 mg/kg/injection, schedule: Q04DX003 (ip), vehicle: saline with Tween-80 106 % of control

CCCCC(=O)c1ccc(Cl)cc1
inactive: [1] 103 % of control | [2] 111 % of control | [3] 104 % of control

CN(C)C(=S)Sc1ccc([N+](=O)[O-])cc1[N+](=O)[O-]
inactive: [4] 96 % of control | [5] 91 % of control | [6] 100 % of control | [7] 93 % of control | [8] 100 % of control | [3] 86 % of control

[O-]/[N+](=N/O)c1ccc(Cl)cc1
inactive: dose: 25.0 mg/kg/injection, schedule: Q01DX001 (ip), vehicle: saline with Tween-80 96 % of control | dose: 25.0 mg/kg/injection, schedule: Q01DX009 (ip), vehicle: saline with Tween-80 100 % of control | dose: 25.0 mg/kg/injection, schedule: Q04DX003 (ip), vehicle: saline with Tween-80 103 % of control | dose: 50.0 mg/kg/injection, schedule: Q01DX001 (ip), vehicle: saline with Tween-80 92 % of control | [9] 94 % of control | dose: 50.0 mg/kg/injection, schedule: Q04DX003 (ip), vehicle: saline with Tween-80 94 % of control | [4] 100 % of control | dose: 100.0 mg/kg/injection, schedule: Q04DX003 (ip), vehicle: saline with Tween-80 92 % of control

O=C(N/N=C/c1ccccc1O)c1ccc(Cl)cc1
inactive: [9] 93 % of control | dose: 100.0 mg/kg/injection, schedule: Q01DX009 (ip), vehicle: saline with Tween-80 93 % of control | dose: 200.0 mg/kg/injection, schedule: Q01DX009 (ip), vehicle: saline with Tween-80 93 % of control

c1ccn2nnnc2c1
inactive: dose: 100.0 mg/kg/injection, schedule: Q01DX001 (ip), vehicle: other 97 % of control | dose: 200.0 mg/kg/injection, schedule: Q01DX001 (ip), vehicle: other 94 % of control

COc1ccccc1/C=C/c1cnccn1
inactive: [5] 98 % of control | [1] 96 % of control | [7] 101 % of control | [2] 102 % of control | dose: 400.0 mg/kg/injection, schedule: Q01DX009 (ip), vehicle: Klucel (hydroxypropylcellulose) (HPC) 93 % of control | [3] 104 % of control

C/C(=C(/CCO)SCCC(=O)c1ccc(Cl)cc1)N(C=O)Cc1cnc(C)nc1N
inactive: [10] 97 % of control | dose: 200.0 mg/kg/injection, schedule: Q04DX003 (ip), vehicle: saline 93 % of control | dose: 400.0 mg/kg/injection, schedule: Q04DX003 (ip), vehicle: saline 97 % of control

CNC(C)Cc1ccc2c(c1)OCO2 (stereo not drawn)
inactive: dose: 12.5 mg/kg/injection, schedule: Q01DX009 (ip), vehicle: saline 105 % of control | dose: 25.0 mg/kg/injection, schedule: Q01DX009 (ip), vehicle: saline 98 % of control | dose: 25.0 mg/kg/injection, schedule: Q04DX003 (ip), vehicle: saline 106 % of control | dose: 50.0 mg/kg/injection, schedule: Q01DX009 (ip), vehicle: saline 100 % of control and 104 % of control | dose: 50.0 mg/kg/injection, schedule: Q04DX003 (ip), vehicle: saline 104 % of control | dose: 75.0 mg/kg/injection, schedule: Q04DX003 (ip), vehicle: saline 92 % of control | [10] 98 % of control

COC1OCC(OS(C)(=O)=O)C(NC(C)=O)C1OS(C)(=O)=O (stereo not drawn)
inactive: dose: 100.0 mg/kg/injection, schedule: Q01DX001 (ip), vehicle: carboxymethylcellulose (CMC) 104 % of control | dose: 177.0 mg/kg/injection, schedule: Q01DX001 (ip), vehicle: carboxymethylcellulose (CMC) 100 % of control | dose: 200.0 mg/kg/injection, schedule: Q01DX001 (ip), vehicle: carboxymethylcellulose (CMC) 98 % of control | dose: 266.0 mg/kg/injection, schedule: Q01DX001 (ip), vehicle: carboxymethylcellulose (CMC) 94 % of control and 108 % of control | dose: 400.0 mg/kg/injection, schedule: Q01DX001 (ip), vehicle: carboxymethylcellulose (CMC) 94 % of control and 103 % of control | dose: 600.0 mg/kg/injection, schedule: Q01DX001 (ip), vehicle: carboxymethylcellulose (CMC) 97 % of control

CCCCCCCCCCC(C)CCCCCCCC (stereo not drawn)
inactive: [4] 113 % of control | [6] 100 % of control | [8] 94 % of control
